The values below come from patent US5283183A, “Cyclic FR-900520 microbial biotransformation agent” (Merck & Co., Inc., priority 1992, dated 1994).

Several values for one entry are separate records, joined by “and”; a condition that tells them apart may be missing. Identical values can stand only once. Entries after “also recorded” stand apart in the source; their conditions may differ. Like-named read-outs stand apart in the source and are kept apart here.

One may read the IC50 as the point on the concentration scale where inhibition reaches its midpoint. As usually defined, the inhibition is the drop in the measured response relative to a control, in per cent.

In experiment [1] the test system is mouse T lymphocytes. In words: T-cell proliferation assay (ionomycin + PMA induced, tritiated thymidine uptake). In kind it is cell-based, mouse (C57B1/6). The protocol:
The principle of this assay is to measure the proliferation of mouse T lymphocytes stimulated with the combination of ionomycin plus PMA.
Cells were pelleted by centrifugation at 1500 rpm for 8 minutes. Contaminating red cells were removed by treating the pellet with ammonium chloride lysing buffer (GIBCO) for 2 minutes at 4° C. Cold medium was added and cells were again centrifuged at 1500 rpm for 8 minutes. T lymphocytes were then isolated by separation of the cell suspension on nylon wool columns as follows: Nylon wool columns were prepared by packing approximately 4 grams of washed and dried nylon wool into 20 ml plastic syringes. The columns were sterilized by autoclaving at 250° F. for 30 minutes. Nylon wool columns were wetted with warm (37° C.) culture medium and rinsed with the same medium. Washed spleen cells resuspended in warm medium were slowly applied to the nylon wool. The columns were then incubated in an upright position at 37° C. for 1 hour. Non-adherent T lymphocytes were eluted from the columns with warm culture medium and the cell suspensions were spun as above.
The cell suspension was immediately distributed into 96 well flat-bottom microculture plates (Costar) at 200 μl/well. […] The proliferation of T lymphocytes was assessed by measurement of tritiated thymidine incorporation. After 44 hours of culturing, the cells were pulse-labelled with 2 μCi/well of tritiated thymidine (NEN, Cambridge, Mass.). After another 4 hours of incubation, cultures were harvested on glass fiber filters using a multiple sample harvester. Radioactivity of filter discs corresponding to individual wells was measured by standard liquid scintillation counting methods (Betacounter). Mean counts per minute of replicate wells were calculated and the results expressed as percent inhibition of tritiated thymidine uptake (proliferation) as follows: [formula]

The conditions of experiment [2]: reputed; EPO Publication No. 0184162; cited from earlier work.

Turning to `CC[C@@H]1C=C2COC1(O)C[C@H](O)[C@@H](C)[C@@H](/C(C)=C/[C@@H]1CC[C@@H](O)[C@H](OC)C1)OC(=O)[C@@H]1CCCCN1C(=O)C(=O)[C@]1(O)O[C@H]([C@@H](OC)C[C@@H](C)C2)[C@@H](OC)C[C@H]1C` [Compound I], the IC50 in experiment [1] (5 additional experiments, individual values) was 1.92 ng/mL and 5.20 ng/mL and 4.80 ng/mL and 4.50 ng/mL; in experiment [1] (Mus musculus, T-lymphocyte, based on 5 additional experiments, read-out: IC50, general range) it was 1.57 to 5.2 ng/mL; in experiment [1] (Mus musculus, T-lymphocyte, mean of all 6 runs, ± SEM, read-out: mean IC50) it was 4.36 ± 1.7 nM; in experiment [1] (Mus musculus, T-lymphocyte, run of the Table, read-out: IC50) it was 3.17 ng/mL. Besides, in experiment [1] (50 units/ml recombinant IL2 at the initiation of culture), the “Inhibition of T-cell proliferation after addition of IL2” value is recorded as “reversed”. Further, the inhibition at 0.0008 µM in experiment [1] (Mus musculus, T-lymphocyte, Compound I 0.8 nM, read-out: Percent of Inhibition) was determined as 16%. The inhibition at 0.0016 µM in experiment [1] (Mus musculus, T-lymphocyte, Compound I 1.6 nM, read-out: Percent of Inhibition) turned out to be 19%. The inhibition at 0.0031 µM in experiment [1] (Mus musculus, T-lymphocyte, Compound I 3.1 nM, read-out: Percent of Inhibition) came to 55%. For the same compound, the inhibition at 0.0062 µM in experiment [1] (Mus musculus, T-lymphocyte, Compound I 6.2 nM, read-out: Percent of Inhibition) came out at 78%. The inhibition at 0.0125 µM in experiment [1] (Mus musculus, T-lymphocyte, Compound I 12.5 nM, read-out: Percent of Inhibition) was 91%. Besides, the inhibition at 0.025 µM in experiment [1] (Mus musculus, T-lymphocyte, Compound I 25.0 nM, read-out: Percent of Inhibition) came to 94%. The inhibition at 0.05 µM in experiment [1] (Mus musculus, T-lymphocyte, Compound I 50.0 nM, read-out: Percent of Inhibition) was found to be 94%. Further, the immunosuppressant activity result in experiment [1] (qualitative statement) is listed as “positive inhibition of T-cell activation; also recorded: positive immunosuppressive activity”.

`C=CC[C@@H]1/C=C(\C)C[C@H](C)C[C@H](OC)[C@H]2O[C@@](O)(C(=O)C(=O)N3CCCC[C@H]3C(=O)O[C@H](/C(C)=C/[C@@H]3CC[C@@H](O)[C@H](OC)C3)[C@H](C)[C@@H](O)CC1=O)[C@H](C)C[C@@H]2OC` [FK-506]: the “times more effective than cyclosporin” value in experiment [2] is 100 times.
